Common to all, as to format: biochemical
Assay [1] deals with T1, RNA cap guanine-N7 methyltransferase (hRNMT) (Homo sapiens, UniProt O43148). As to the kind of experiment: radiometric scintillation proximity methyltransferase assay (3H-SAM, biotinylated RNA). Further details: gene RNMT; RNMT (1–476), full length.
The target in assay [2] is T1, RNA cap guanine-N7 methyltransferase (hRNMT). As to the kind of experiment: radiometric scintillation proximity methyltransferase assay (3H-SAM, biotinylated RNA); product inhibition. Further details: gene RNMT; RNMT (1–476), full length. Background: Scintillation proximity formats need no separation of bound from free tracer.
Assay [3] shares this target. Put plainly: steady-state kinetics, apparent Km by radiometric scintillation proximity assay. Further details: gene RNMT; RNMT (1–476), full length; also catalytic domain RNMT (123–476). Particulars: read-out: Km^app.

T1 sequence (O43148 whole entry): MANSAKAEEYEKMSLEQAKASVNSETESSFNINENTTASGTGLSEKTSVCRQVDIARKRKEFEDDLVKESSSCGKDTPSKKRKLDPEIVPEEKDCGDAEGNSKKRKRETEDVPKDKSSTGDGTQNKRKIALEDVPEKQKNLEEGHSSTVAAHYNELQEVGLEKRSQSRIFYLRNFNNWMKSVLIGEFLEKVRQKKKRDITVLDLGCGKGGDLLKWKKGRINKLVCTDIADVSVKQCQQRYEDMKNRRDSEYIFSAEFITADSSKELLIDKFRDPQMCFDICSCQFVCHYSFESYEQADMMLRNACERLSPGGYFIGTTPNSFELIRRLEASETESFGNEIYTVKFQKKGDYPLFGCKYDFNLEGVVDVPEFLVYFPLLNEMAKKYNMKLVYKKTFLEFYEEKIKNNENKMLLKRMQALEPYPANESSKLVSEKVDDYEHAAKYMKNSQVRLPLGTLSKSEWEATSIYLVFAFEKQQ

`Nc1ncnc2c1ncn2[C@@H]1O[C@H](C[C@@H](N)CC[C@H](N)C(=O)O)[C@@H](O)[C@H]1O` [Sinefungin] returned a half-inhibitory concentration (IC50) in assay [1] of 3 ± 0.6 nM.

Consider `Nc1ncnc2c1ncn2[C@@H]1O[C@H](CSCC[C@H](N)C(=O)O)[C@@H](O)[C@H]1O` [SAH], for which the IC50 in assay [2] stood at 389 ± 110 nM.

As to `Cc1ccc(C(=O)Nc2ccc(S(=O)(=O)O)c3cc(S(=O)(=O)O)cc(S(=O)(=O)O)c23)cc1NC(=O)c1cccc(NC(=O)Nc2cccc(C(=O)Nc3cc(C(=O)Nc4ccc(S(=O)(=O)O)c5cc(S(=O)(=O)O)cc(S(=O)(=O)O)c45)ccc3C)c2)c1` [Suramin], the IC50 in assay [1] (read-out: IC50) was 5 ± 0.4 nM.

Consider `C[S+](CC[C@H](N)C(=O)[O-])C[C@H]1O[C@@H](n2cnc3c(N)ncnc32)[C@H](O)[C@@H]1O` (stereo partly shown) [SAM], for which the Km in assay [3] came out at 0.19 ± 0.038 µM.

As a reminder, the IC50 is the concentration at which inhibition is half-maximal. By Km is commonly meant the concentration of substrate that gives half-maximal velocity.
